In US6737383B1, “Herbicidal oxadiazolidines” (priority 1999, dated 2004):

Legend:
soybean = assay: Test B pre/postemergence soybean; format: in vivo, Glycine max
How it was run: (§1)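 Test chemicals in a non-phytotoxic solvent mixture with surfactant were sprayed preemergence onto planted seeds and postemergence onto plants 2 to 18 cm tall (1- to 4-leaf stage). After twelve to sixteen days in a greenhouse, injury was visually rated against untreated controls from 0 (no effect) to 10 (complete control).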

sugar beet = assay: Test B pre/postemergence sugar beet; format: in vivo, Beta vulgaris
How it was run: as §1

wheat = assay: Test B pre/postemergence wheat; format: in vivo, Triticum aestivum
How it was run: as §1

pigweed = assay: Test B pre/postemergence pigweed; format: in vivo, Amaranthus retroflexus
How it was run: as §1

cocklebur = assay: Test B pre/postemergence cocklebur; format: in vivo, Xanthium strumarium
How it was run: as §1

morningglory = assay: Test B pre/postemergence morningglory; format: in vivo, Ipomoea hederacea
How it was run: as §1

smallflower flatsedge = assay: Test B flood test smallflower flatsedge; format: in vivo, Cyperus difformis
How it was run: (§2)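 Read-out is a visual response score from 0 (no effect) to 10 (complete control), assigned by comparison with untreated controls. Treatment was applied at the 2-leaf stage, and plants stayed in the greenhouse for twelve to sixteen days before scoring.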

rape = assay: Test B pre/postemergence rape; format: in vivo, Brassica napus
How it was run: as §1

surinam grass = assay: Test B pre/postemergence surinam grass; format: in vivo, Brachiaria decumbens
How it was run: as §1

blackgrass = assay: Test B pre/postemergence blackgrass; format: in vivo, Alopecurus myosuroides
How it was run: as §1

bedstraw = assay: Test B pre/postemergence bedstraw; format: in vivo, Galium aparine; settings: Preemergence
How it was run: as §1

duck salad = assay: Test B flood test duck salad; format: in vivo, Heteranthera limosa
How it was run: as §2

giant foxtail = assay: Test B pre/postemergence giant foxtail; format: in vivo, Setaria faberii
How it was run: as §1

purple nutsedge = assay: Test B pre/postemergence purple nutsedge; format: in vivo, Cyperus rotundus
How it was run: as §1

bamyardgrass = assay: Test B flood test barnyardgrass; format: in vivo, Echinochloa crus-galli
How it was run: as §2

wild oat = assay: Test B pre/postemergence wild oat; format: in vivo, Avena fatua
How it was run: as §1

[1] = Postemergence, Rate 62 g/ha, scale 0 to 10, 0 is no effect, 10 is complete control
[2] = Postemergence, Rate 125 g/ha, scale of 0 to 10 where 0 is no effect and 10 is complete control
[3] = Preemergence, Rate 62 g/ha, scale of 0 to 10 where 0 is no effect and 10 is complete control
[4] = Preemergence, Rate 125 g/ha, scale of 0 to 10 where 0 is no effect and 10 is complete control
[5] = Preemergence, Rate 250 g/ha, scale 0 to 10 (0 no effect, 10 complete control)
[6] = Preemergence, Rate 500 g/ha, scale of 0 to 10 where 0 is no effect and 10 is complete control
[7] = Rate 500 g/ha, Postemergence, scale 0 to 10, 0 is no effect, 10 is complete control
[8] = Postemergence, Rate 250 g/ha, scale of 0 to 10, 0 is no effect, 10 is complete control
[9] = Rate 62 g/ha, flood test species, Pre-emergence, visual evaluation after twelve to sixteen days
[10] = Rate 125 g/ha, under heading Pre-emergence, flood test species, visual evaluation after twelve to sixteen days
[11] = Rate 250 g/ha, Pre-emergence (flood test species), scale 0 to 10, 0 is no effect, 10 is complete control
[12] = Rate 500 g/ha, Pre-emergence section of Table B, 0 to 10 scale (0 no effect, 10 complete control)

C=C(Cc1ccccc1)Cn1c(=O)on(C(=O)N(c2ccccc2)C(C)C)c1=O [Compound 650]
Plant response rating, Soybean (soybean; [1]): 2
Soybean plant response rating (soybean; [2]): 4
Soybean plant response rating (soybean; [3]): 0
Soybean plant response rating (soybean; [4]): 0
Plant response rating, Soybean (soybean; [5]): 0
Plant response rating, Soybean (soybean; [6]): 0
Soybean plant response rating (soybean; [7]): 5
Plant response rating, Sugarbeets (sugar beet; [1]): 0
Sugarbeets plant response rating (sugar beet; [2]): 0
Sugarbeets plant response rating (sugar beet; [3]): 0
Sugarbeets plant response rating (sugar beet; [4]): 0
Plant response rating, Sugarbeets (sugar beet; [5]): 0
Plant response rating, Sugarbeets (sugar beet; [6]): 4
Sugarbeets plant response rating (sugar beet; [7]): 0
Plant response rating, Wheat (wheat; [1]): 0
Wheat plant response rating (wheat; [2]): 0
Wheat plant response rating (wheat; [3]): 0
Wheat plant response rating (wheat; [4]): 0
Plant response rating, Wheat (wheat; [5]): 0
Plant response rating, Wheat (wheat; [6]): 0
Wheat plant response rating (wheat; [7]): 0
Plant response rating, Redroot pigweed (pigweed; [1]): 2
Redroot pigweed plant response rating (pigweed; [2]): 6
Redroot pigweed plant response rating (pigweed; [3]): 1
Redroot pigweed plant response rating (pigweed; [4]): 7
Plant response rating, Redroot pigweed (pigweed; [5]): 7
Plant response rating, Redroot pigweed (pigweed; [6]): 9
Redroot pigweed plant response rating (pigweed; [7]): 6
Plant response rating, Cocklebur (cocklebur; [1]): 0
Cocklebur plant response rating (cocklebur; [2]): 0
Cocklebur plant response rating (cocklebur; [8]): 0
Cocklebur plant response rating (cocklebur; [3]): 0
Cocklebur plant response rating (cocklebur; [4]): 0
Plant response rating, Cocklebur (cocklebur; [5]): 0
Plant response rating, Cocklebur (cocklebur; [6]): 0
Cocklebur plant response rating (cocklebur; [7]): 0
Plant response rating, Morningglory (morningglory; [1]): 4
Morningglory plant response rating (morningglory; [2]): 10
Morningglory plant response rating (morningglory; [8]): 10
Morningglory plant response rating (morningglory; [3]): 0
Morningglory plant response rating (morningglory; [4]): 0
Plant response rating, Morningglory (morningglory; [5]): 1
Plant response rating, Morningglory (morningglory; [6]): 1
Morningglory plant response rating (morningglory; [7]): 10
Plant response rating, S. Flatsedge (0 to 10 scale, 0 is no effect, 10 is complete control) (smallflower flatsedge; [9]): 0
S. Flatsedge plant response rating (0 to 10 scale, 0 is no effect, 10 is complete control) (smallflower flatsedge; [10]): 0
S. Flatsedge plant response rating (smallflower flatsedge; [11]): 0
S. Flatsedge plant response rating (smallflower flatsedge; [12]): 0
Plant response rating, Rape (rape; [1]): 0
Rape plant response rating (rape; [2]): 0
Rape plant response rating (rape; [3]): 0
Rape plant response rating (rape; [4]): 0
Plant response rating, Rape (rape; [5]): 0
Plant response rating, Rape (rape; [6]): 2
Rape plant response rating (rape; [7]): 3
Plant response rating, B. signalgrass (surinam grass; [1]): 0
Plant response rating, B. signalgrass (surinam grass; [2]): 0
B. signalgrass plant response rating (surinam grass; [8]): 0
B. signalgrass plant response rating (surinam grass; [3]): 0
B. signalgrass plant response rating (surinam grass; [4]): 0
Plant response rating, B. signalgrass (surinam grass; [5]): 0
Plant response rating, B. signalgrass (surinam grass; [6]): 4
B. signalgrass plant response rating (surinam grass; [7]): 2
Plant response rating, Blackgrass (blackgrass; [1]): 0
Blackgrass plant response rating (blackgrass; [2]): 0
Blackgrass plant response rating (blackgrass; [8]): 0
Blackgrass plant response rating (blackgrass; [3]): 0
Blackgrass plant response rating (blackgrass; [4]): 0
Plant response rating, Blackgrass (blackgrass; [5]): 0
Plant response rating, Blackgrass (blackgrass; [6]): 3
Blackgrass plant response rating (blackgrass; [7]): 3
Bedstraw plant response rating (bedstraw; Rate 62 g/ha, scale of 0 to 10 where 0 is no effect and 10 is complete control): 0
Bedstraw plant response rating (bedstraw; Rate 125 g/ha, scale of 0 to 10 where 0 is no effect and 10 is complete control): 0
Plant response rating, Bedstraw (bedstraw; Rate 250 g/ha, scale 0 to 10 (0 no effect, 10 complete control)): 0
Plant response rating, Bedstraw (bedstraw; Rate 500 g/ha, scale of 0 to 10 where 0 is no effect and 10 is complete control): 5
Plant response rating, Ducksalad (0 to 10 scale, 0 is no effect, 10 is complete control) (duck salad; [9]): 0
Ducksalad plant response rating (0 to 10 scale, 0 is no effect, 10 is complete control) (duck salad; [10]): 0
Ducksalad plant response rating (duck salad; [11]): 0
Ducksalad plant response rating (duck salad; [12]): 0
Plant response rating, Giant foxtail (giant foxtail; [1]): 0
Giant foxtail plant response rating (giant foxtail; [2]): 2
Giant foxtail plant response rating (giant foxtail; [8]): 8
Giant foxtail plant response rating (giant foxtail; [3]): 7
Giant foxtail plant response rating (giant foxtail; [4]): 10
Plant response rating, Giant foxtail (giant foxtail; [5]): 10
Plant response rating, Giant foxtail (giant foxtail; [6]): 10
Giant foxtail plant response rating (giant foxtail; [7]): 8
Plant response rating, Nutsedge (purple nutsedge; [1]): 2
Nutsedge plant response rating (purple nutsedge; [2]): 2
Nutsedge plant response rating (purple nutsedge; [4]): 3
Plant response rating, Nutsedge (purple nutsedge; [5]): 7
Plant response rating, Nutsedge (purple nutsedge; [6]): 5
Nutsedge plant response rating (purple nutsedge; [7]): 4
Plant response rating, Barnyardgrass (0 to 10 scale, 0 is no effect, 10 is complete control) (bamyardgrass; [9]): 0
Barnyardgrass plant response rating (0 to 10 scale, 0 is no effect, 10 is complete control) (bamyardgrass; [10]): 0
Barnyardgrass plant response rating (bamyardgrass; [11]): 0
Barnyardgrass plant response rating (bamyardgrass; [12]): 0
Plant response rating, Wild oats (wild oat; [1]): 0
Wild oats plant response rating (wild oat; [2]): 0
Wild oats plant response rating (wild oat; [3]): 0
Wild oats plant response rating (wild oat; [4]): 0
Plant response rating, Wild oats (wild oat; [5]): 0
Plant response rating, Wild oats (wild oat; [6]): 0
Wild oats plant response rating (wild oat; [7]): 0
